Structures are written as SMILES.

One data set relates to rat global ischemia models. The conditions noted are these: reported in literature; cited from earlier work.
As to `CC1=NN=C(c2ccc(N)cc2)c2cc3c(cc2C1)OCO3` [GKYI 52466], the “neuroprotection in rat global ischemia models” value is given as “effective neuroprotective agent”.

Tested on in the next data set: not given
Conditions: not given
`N#Cc1ccccc1NCc1nc2ccc(F)cc2c(=O)n1-c1cccnc1Cl` came in with a melting point of 183 to 187 °C.

With `O=c1c2cc(F)ccc2nc(CNCc2ccccc2F)n1-c1ccccc1Cl`, the melting point came to 140 °C.

Compound `N#Cc1cccnc1NCc1nc2ccc(F)cc2c(=O)n1-c1ccccc1Cl` registered a melting point of 145 to 150 °C.

`O=c1c2cc(F)ccc2nc(CNc2ccccc2F)n1-c1cccnc1Cl` had a melting point of 180 to 182 °C.

For the compound `Cl.O=c1c2sccc2nc(CNc2cccc(CN3CCCC3)c2)n1-c1ccccc1Cl`, the melting point lay within 148 to 151 °C.

With `N#Cc1cccc(NCc2nc3ccc(F)cc3c(=O)n2-c2ccccc2Cl)c1`, the melting point was 225 to 228 °C.

`O=c1c2cc(F)ccc2nc(CNc2ncccn2)n1-c1ccccc1Cl`: the melting point lay in the range of 182 to 185 °C.

Compound `Cc1cccc(NCc2nc3ccc(F)cc3c(=O)n2-c2cccnc2Cl)n1` yielded a melting point of 190 to 195 °C.

`Cl.O=c1c2cc(F)ccc2nc(CNc2ccccn2)n1-c1ccccc1Cl` gave a melting point of 90 to 100 °C.

Consider `O=c1c2cc(F)ccc2nc(CNc2cccc(CN3CCCC3)c2)n1-c1ccccc1Cl` [Example 12, 3-(2-Chloro-phenyl)-6-fluoro-2-[(3-pyrrolidin-1-ylmethyl-phenylamino)-methyl]-3H-quinazolin-4-one], for which the melting point was 105 to 110 °C.

With `O=c1c2sccc2nc(CNc2ccccc2F)n1-c1ccccc1Cl` [Example 17, 3-(2-Chloro-phenyl)-2-[(2-fluoro-phenylamino)-methyl]-3H-thieno[3,2-d]pyrimidin-4-one], the melting point is 175 to 176 °C.

In the next data set the test system is global and focal ischemic damage. The conditions noted are these: focal and global ischemia models; reported in literature; cited from earlier work.
As to `NS(=O)(=O)c1cccc2c1c([N+](=O)[O-])cc1nc(O)c(O)nc12` [NBOX, 2,3-dihydroxy-6-nitro-7-sulfamoylbenzo[f-]quinoxaline], the “prevention of global and focal ischemic damage” value was “effective in preventing global and focal ischemic damage”.

The record behind these values is patent publication US6921764B2, “Thieno-pyrimidin-4-one AMPA antagonists” (Pfizer Inc., priority 1997, dated 2005).
